This passage reports T/C results from PubChem BioAssay AID256 (DTP/NCI, 2004).

The assay concerns CD2F1 mice, L1210 leukemia ip, survival T/C. In words: NCI In Vivo Anticancer Drug Screen. Data for tumor model L1210 Leukemia (intraperitoneal) in CD2F1 (CDF1) mice. Conditions: higher = longer survival. The essentials: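 Compound-dosed mice with transplantable tumor versus matched vehicle controls; endpoint ratio T/C reported.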
Setting [1] is: endpoint: mean survival time, dose: 50.0 mg/kg/injection, schedule: Q04DX002 (ip), vehicle: saline with Tween-80.
Where [2] appears, read: endpoint: mean survival time, dose: 100.0 mg/kg/injection, schedule: Q04DX002 (ip), vehicle: saline with Tween-80.
Setting [3] is: endpoint: mean survival time, dose: 200.0 mg/kg/injection, schedule: Q04DX002 (ip), vehicle: saline with Tween-80.
Setting [4] is: endpoint: mean survival time, dose: 400.0 mg/kg/injection, schedule: Q04DX002 (ip), vehicle: saline with Tween-80.
The mark [5] stands for this setting: endpoint: mean survival time, dose: 100.0 mg/kg/injection, schedule: Q01DX001 (ip), vehicle: saline with Tween-80.
The mark [6] stands for this setting: endpoint: mean survival time, dose: 200.0 mg/kg/injection, schedule: Q01DX001 (ip), vehicle: saline with Tween-80.
[7] abbreviates: endpoint: mean survival time, dose: 100.0 mg/kg/injection, schedule: Q04DX003 (ip), vehicle: saline with Tween-80.
Setting [8] is: endpoint: mean survival time, dose: 200.0 mg/kg/injection, schedule: Q04DX003 (ip), vehicle: saline with Tween-80.
The mark [9] stands for this setting: endpoint: mean survival time, dose: 400.0 mg/kg/injection, schedule: Q04DX003 (ip), vehicle: saline with Tween-80.
The mark [10] stands for this setting: endpoint: mean survival time, dose: 25.0 mg/kg/injection, schedule: Q04DX002 (ip), vehicle: saline with Tween-80.
The mark [11] stands for this setting: endpoint: mean survival time, dose: 12.5 mg/kg/injection, schedule: Q01DX005 (ip), vehicle: distilled water + Tween-80.
[12] abbreviates: endpoint: mean survival time, dose: 25.0 mg/kg/injection, schedule: Q01DX005 (ip), vehicle: distilled water + Tween-80.
Setting [13] is: endpoint: mean survival time, dose: 50.0 mg/kg/injection, schedule: Q01DX005 (ip), vehicle: distilled water + Tween-80.
Setting [14] is: endpoint: mean survival time, dose: 100.0 mg/kg/injection, schedule: Q01DX005 (ip), vehicle: distilled water + Tween-80.

Several values for one entry are separate records, joined by “and”; a condition that tells them apart may be missing. Equal entries are not always repeated. Inconclusive results and toxic doses are left out.

On to `O=[N+]([O-])c1cccc(S(=O)(=O)N2CCCCC2)c1`, for which the T/C is, setting by setting: under setting [1], 95 % of control; under setting [2], 87 % of control; under setting [3], 95 % of control; under setting [4], 91 % of control.

In the case of `COC(=O)c1ccccc1NC(=O)Nc1cccc(OC)c1`, the T/C runs as follows: (endpoint: mean survival time, dose: 100.0 mg/kg/injection, schedule: Q01DX001 (ip), vehicle: Klucel (hydroxypropylcellulose) (HPC)) 95 % of control; (endpoint: mean survival time, dose: 200.0 mg/kg/injection, schedule: Q01DX001 (ip), vehicle: Klucel (hydroxypropylcellulose) (HPC)) 101 % of control; (endpoint: mean survival time, dose: 400.0 mg/kg/injection, schedule: Q01DX001 (ip), vehicle: Klucel (hydroxypropylcellulose) (HPC)) 95 % of control.

`CNCC(O)c1ccc(O)c(O)c1.[Pt].c1ccc([PH+](c2ccccc2)c2ccccc2)cc1.c1ccc([PH+](c2ccccc2)c2ccccc2)cc1`: the T/C (endpoint: median survival time, dose: 10.0 mg/kg/injection, schedule: Q04DX003 (ip), vehicle: saline with Tween-80) is 94 % of control; the T/C (endpoint: median survival time, dose: 20.0 mg/kg/injection, schedule: Q04DX003 (ip), vehicle: saline with Tween-80) is 108 % of control; the T/C (endpoint: median survival time, dose: 40.0 mg/kg/injection, schedule: Q04DX003 (ip), vehicle: saline with Tween-80) is 109 % of control; the T/C (endpoint: median survival time, dose: 50.0 mg/kg/injection, schedule: Q04DX003 (ip), vehicle: saline with Tween-80) was 102 % of control; the T/C (endpoint: median survival time, dose: 80.0 mg/kg/injection, schedule: Q04DX003 (ip), vehicle: saline with Tween-80) is 105 % of control; the T/C (endpoint: median survival time, dose: 100.0 mg/kg/injection, schedule: Q04DX003 (ip), vehicle: saline with Tween-80) was 101 % of control.

`CCOc1ccc(-n2c(O)c(N=Nc3ccccc3)c(=O)n(-c3ccccc3)c2=S)cc1`: the T/C is, setting by setting: under setting [5], 92 % of control; under setting [6], 102 % of control.

As to `O=C1c2ccccc2C(c2ccccc2)(c2ccccc2)N1c1ccccc1`, the T/C by setting is: under setting [7], 107 % of control; under setting [8], 104 % of control; under setting [9], 107 % of control.

For the molecule `CC(O)CNC1CCCCC1` (centres undefined), the T/C is, setting by setting: (endpoint: mean survival time, dose: 25.0 mg/kg/injection, schedule: Q01DX009 (ip), vehicle: saline with Tween-80) 97 % of control; (endpoint: mean survival time, dose: 50.0 mg/kg/injection, schedule: Q01DX009 (ip), vehicle: saline with Tween-80) 97 % of control; (endpoint: mean survival time, dose: 100.0 mg/kg/injection, schedule: Q01DX009 (ip), vehicle: saline with Tween-80) 97 % of control.

Take `CC(=O)OC1CC2C[CH]([Hg][Cl])C1C2` (centres undefined): the T/C was 95 % of control (endpoint: mean survival time, dose: 6.25 mg/kg/injection, schedule: Q04DX003 (ip), vehicle: saline with Tween-80); 111 % of control (endpoint: mean survival time, dose: 12.5 mg/kg/injection, schedule: Q04DX003 (ip), vehicle: saline with Tween-80); 86 % of control (endpoint: mean survival time, dose: 25.0 mg/kg/injection, schedule: Q04DX003 (ip), vehicle: saline with Tween-80).

On to `O=C(/C=C/c1ccc(OCc2ccccc2)c(OCc2ccccc2)c1)OCc1ccccc1`, for which the T/C runs as follows: under setting [10], 102 % of control; under setting [1], 91 % of control; under setting [2], 95 % of control; under setting [3], 95 % of control.

Turning to `NC(=O)c1ncn(C2OC(CO)C(O)C2O)c1O` (centres undefined), the T/C is 122 % of control (endpoint: mean survival time, dose: 12.5 mg/kg/injection, schedule: Q01DX009 (ip), vehicle: Klucel (hydroxypropylcellulose) (HPC)); 113 % of control and 120 % of control (endpoint: mean survival time, dose: 25.0 mg/kg/injection, schedule: Q01DX009 (ip), vehicle: Klucel (hydroxypropylcellulose) (HPC)); 116 % of control and 106 % of control (endpoint: mean survival time, dose: 200.0 mg/kg/injection, schedule: Q01DX009 (ip), vehicle: Klucel (hydroxypropylcellulose) (HPC)); 120 % of control and 93 % of control and 110 % of control (endpoint: mean survival time, dose: 400.0 mg/kg/injection, schedule: Q01DX009 (ip), vehicle: Klucel (hydroxypropylcellulose) (HPC)).

Regarding `C[P+](c1ccc(F)cc1)(c1ccc(F)cc1)c1ccc(F)cc1`, the T/C was 100 % of control under setting [10] and 92 % of control under setting [1].

As for `CCCCC=C(C1CCCC1C)C1CCCC1C` (centres undefined), the T/C was 97 % of control under setting [5]; 102 % of control under setting [6]; 94 % of control (endpoint: mean survival time, dose: 400.0 mg/kg/injection, schedule: Q01DX001 (ip), vehicle: saline with Tween-80).

Regarding `S=C(CSc1ccccc1)Nc1cccc2ccccc12`, the T/C is 101 % of control under setting [7], 91 % of control under setting [8] and 93 % of control under setting [9].

With `C#CCOC1CCCCC1O` (centres undefined), the T/C (endpoint: mean survival time, dose: 100.0 mg/kg/injection, schedule: Q04DX003 (ip), vehicle: acetone) was 101 % of control.

On to `OC(CF)CF`, for which the T/C by setting is: (endpoint: mean survival time, dose: 12.5 mg/kg/injection, schedule: Q01DX009 (ip), vehicle: saline) 106 % of control; (endpoint: mean survival time, dose: 25.0 mg/kg/injection, schedule: Q01DX009 (ip), vehicle: saline) 118 % of control.

On to `ClCCN(CCCl)CCCN1c2ccccc2Sc2ccc(Cl)cc21`, for which the T/C by setting is: (endpoint: mean survival time, dose: 18.0 mg/kg/injection, schedule: Q01DX001 (ip), vehicle: saline with Tween-80) 103 % of control; (endpoint: mean survival time, dose: 28.0 mg/kg/injection, schedule: Q01DX001 (ip), vehicle: saline with Tween-80) 100 % of control; (endpoint: mean survival time, dose: 40.0 mg/kg/injection, schedule: Q01DX001 (ip), vehicle: saline with Tween-80) 97 % of control; (endpoint: mean survival time, dose: 60.0 mg/kg/injection, schedule: Q01DX001 (ip), vehicle: saline with Tween-80) 103 % of control; (endpoint: mean survival time, dose: 90.0 mg/kg/injection, schedule: Q01DX001 (ip), vehicle: saline with Tween-80) 107 % of control; (endpoint: mean survival time, dose: 135.0 mg/kg/injection, schedule: Q01DX001 (ip), vehicle: saline with Tween-80) 112 % of control.

In the case of `CC(C)(C)c1ccc(OCCO)cc1`, the T/C is 108 % of control (endpoint: mean survival time, dose: 100.0 mg/kg/injection, schedule: Q01DX009 (ip), vehicle: other) and 100 % of control under setting [7].

In the case of `OCC1OC(n2ncc3c2nnn2ncnc32)C(O)C1O` (centres undefined), the T/C was 92 % of control (endpoint: mean survival time, dose: 25.0 mg/kg/injection, schedule: Q01DX005 (ip), vehicle: water); 99 % of control (endpoint: mean survival time, dose: 50.0 mg/kg/injection, schedule: Q01DX005 (ip), vehicle: water); 94 % of control (endpoint: mean survival time, dose: 100.0 mg/kg/injection, schedule: Q01DX005 (ip), vehicle: water); 87 % of control (endpoint: mean survival time, dose: 200.0 mg/kg/injection, schedule: Q01DX005 (ip), vehicle: water); 113 % of control (endpoint: mean survival time, dose: 400.0 mg/kg/injection, schedule: Q01DX005 (ip), vehicle: water).

As for `CCOC(=O)CN/N=C(\N)CSS(=O)(=O)O`, the T/C runs as follows: under setting [7], 97 % of control; under setting [8], 97 % of control; under setting [9], 100 % of control.

Turning to `CC(C)(C)C(=O)CC(=O)C(C)(C)C.CC(C)(C)C(=O)CC(=O)C(C)(C)C.CC(C)(C)C(=O)CC(=O)C(C)(C)C.[Nd]`, the T/C under setting [7] is 101 % of control, the T/C under setting [8] was 95 % of control and the T/C under setting [9] was 95 % of control.

For `O=NC1CCCCC1Cl` (centres undefined), the T/C (endpoint: mean survival time, dose: 100.0 mg/kg/injection, schedule: Q01DX001 (ip), vehicle: saline) is 96 % of control and 98 % of control and 93 % of control; the T/C (endpoint: mean survival time, dose: 200.0 mg/kg/injection, schedule: Q01DX001 (ip), vehicle: saline) was 95 % of control and 102 % of control and 100 % of control; the T/C (endpoint: mean survival time, dose: 400.0 mg/kg/injection, schedule: Q01DX001 (ip), vehicle: saline) is 101 % of control and 105 % of control.

`CC12C(=O)C(C)(C(c3ccccc3)=C1c1ccccc1)C([N+](=O)[O-])C2c1ccccc1` (centres undefined): the T/C was 94 % of control under setting [2], 97 % of control under setting [3] and 94 % of control under setting [4].

On to `CN(Cc1cnc2nc(N)nc(N)c2n1)c1ccc(C(=O)NC(CCC(=O)NC(CC(=O)O)C(=O)O)C(=O)O)cc1` (centres undefined), for which the T/C is 165 % of control (endpoint: mean survival time, dose: 5.0 mg/kg/injection, schedule: Q01DX009 (ip), vehicle: sodium bicarbonate) and 151 % of control (endpoint: mean survival time, dose: 10.0 mg/kg/injection, schedule: Q01DX009 (ip), vehicle: sodium bicarbonate).

In the case of `CCN(CC)c1nc2c(c(=O)n(C)c(=O)n2C)n1CCCNCC(O)c1ccc(O)c(O)c1` (centres undefined), the T/C runs as follows: under setting [11], 96 % of control; under setting [12], 103 % of control; under setting [13], 97 % of control; under setting [14], 105 % of control; (endpoint: mean survival time, dose: 200.0 mg/kg/injection, schedule: Q01DX005 (ip), vehicle: distilled water + Tween-80) 100 % of control.

Regarding `CC1(C)OC2C(/C=C\C(=O)c3ccccc3)OC(n3ccc(=O)[nH]c3=O)C2O1` (centres undefined), the T/C runs as follows: under setting [11], 102 % of control; under setting [12], 100 % of control; under setting [13], 96 % of control; under setting [14], 103 % of control.
